Assay results as given in patent publication US20040063783A1, “Nitroso diphenylamine derivatives” (priority 2003, published 2004).
pIC50: −log10 of the molar value.

Columns and labels:
Format in all cases: biochemical
[1] = test system: human low molecular weight lipoproteins; assay: Prevention of cupric-ion oxidation of human low molecular weight lipoproteins (apoprotein B fluorescence), compounds of the formula II; conditions: lipoproteins oxidized with cupric ions for 24 hours at 37° C, fluorescence excitation 360 nm, emission 460 nm
Protocol: In the test carried out, the human low molecular weight lipoproteins are oxidized with cupric ions for 24 hours at 37° C. The B apoprotein bome by these lipoproteins becomes fluorescent on oxidation (excitation at 360 nm, emission at 460 nm). In the presence of the compounds of the formula II, a decrease in fluorescence is noted, which reflects the antioxidant power of the compounds of the formula II. The results are expressed in the form of a 50% inhibitory concentration (IC50).

[2] = Spontaneous nitric oxide release: nitrites+nitrates titrated by colorimetry (Griess reagent, nitrate reductase); conditions: test product final concentration 150 μM; 4 hours at 37° C; pH 7.5 PBS buffer; optical density at 540 nm
Protocol: A solution of a compound of the invention spontaneously releases nitric oxide. The nitrite ions resulting therefrom are titrated by colorimetry by means of a specific reagent (Griess). To take account of any release of nitrate ions in addition to the nitrite ions, bacterial nitrate reductase is added to the reaction medium to allow the nitrate ions formed to be reduced.
The reactions and measurements are carried out in transparent 96-well plates. The test products are dissolved at the time of use to a concentration of 3 mM in dimethyl sulfoxide. 95 μl of a reagent containing nitrate reductase (0.18U/ml in 100 mM pH 7.5 PBS buffer, 210 μM β-NADPH, 5 μM FAD) and 5 μl of a solution of the test product (final concentration of 150 μM) are then added to each well. After stirring, the mixture is left to incubate for 4 hours at 37° C. The reaction is then quenched by addition of 100 μl of the Griess reagent (Sigma G4410). The reagent is allowed to act for 5 minutes at room temperature and the optical density is then read at 540. nm. This value is proportional to the concentration of nitrites+nitrates in the medium. A calibration range is made for each plate using NaNO2.
The results are expressed as […] (μM) of nitrites+nitrates released, in Table 5 below.

Human LDLs = assay: Oxidation of human LDL in the presence of cupric ion (fluorescence), antioxidant effect; conditions: human LDL 120 μg/ml, 100 μM CuCl2; difference of fluorescence readings at 2 h and 24 h, 37° C; from 3 product concentrations
Protocol: Human LDLs dissolved in aqueous solution in the presence of cupric ion become spontaneously oxidized on their protein component, apolipoprotein B. This oxidation makes the particle fluorescent, which is exploited to measure a pharmacological effect.
The reactions and measurements are carried out in black 96-well plates, 10 μl of a solution of the test product dissolved in dimethyl sulfoxide are first mixed with 170 μl of a solution of human LDL at 120 μg/ml and 20 μl of 100 μM CuCl2. After stirring, the mixture is left to incubate for 2 hours at 37° C., and a first fluorescence reading is taken (excitation at 360 nm, reading at 460 nm). The mixture is then left to incubate for a further 22 hours, to take a second reading under the same conditions. The difference between the two values obtained is the measurement of the oxidation of the LDLs in solution. This difference is proportionately smaller the greater the antioxidant power of the test product. Probucol is used as reference product at 10 μM.
The concentrations which inhibit the oxidation by 50% (IC50) are produced from 3 product concentrations.

Row | pIC50 [1] | Nitrates + nitrites [2] [µM] | pIC50 (Human LDLs) | SMILES
1 | 4.98 | – | – | COc1ccc(Nc2ccc(NC(=O)c3ccc[n+]([O-])c3)cc2)cc1
2 | 5.19 | – | – | COc1ccc(Nc2ccc(NC(=O)c3cccc([N+](=O)[O-])c3)cc2)cc1 [T=4-Me—O—, X=H, A=CO, Y=3-NO2—C6H4—]
3 | 5.44 | – | – | COc1ccc(Nc2ccc(NC(=O)c3cccnc3Oc3ccc(Cl)cc3)cc2)cc1
4 | 5.74 | – | – | CSc1ccc(Nc2ccc(NC(=O)c3ccccc3)cc2)cc1 [T=4-MeS—, X=H, A=CO, Y=C6H5]
5 | 5.28 | – | – | COc1ccc(Nc2ccc(NC(=O)c3cncnc3)cc2)cc1 [T=4-Me—O—, X=H, A=CO, Y=5-pyrimidyl, 4-methoxy4′-[5-pyrimidinylcarbonylamino]diphenylamine]
6 | 5.43 | – | – | O=S(=O)(Nc1ccc(Nc2ccccc2)cc1)c1cccc(F)c1 [T=H, X=H, A=SO2, Y=3-F—C6H4—]
7 | 4.93 | – | – | N#Cc1ccc(S(=O)(=O)Nc2ccc(Nc3ccccc3)cc2)cc1 [T=H, X=H, A=SO2, Y=4-CN—C6H4]
8 | 4.95 | – | – | CCCCCCc1ccc(C(=O)Nc2ccc(Nc3ccc(OC)cc3)cc2)s1
9 | 4.95 | – | – | COc1ccc(Nc2ccc(NC(=O)c3ccc(N(C)C)cc3)cc2)cc1 [T=4-MeO—, X=H, A=CO, Y=4-(CH3)2N—C6H4—]
10 | – | 22 | 5.66 | COc1ccc(N(N=O)c2ccc(NC(=O)c3ccc(C#N)cc3)cc2)cc1 [Example 12]
11 | 5.03 | – | – | COc1ccc(Nc2ccc(NC(=O)c3cc(C(C)(C)C)c(O)c(C(C)(C)C)c3)cc2)cc1
12 | 5.48 | – | – | O=S(=O)(Nc1ccc(Nc2ccccc2)cc1)c1cccs1 [T=H, X=H, A=SO2, Y=2-thienyl]
13 | 5.06 | – | – | COc1ccc(Nc2ccc(NS(=O)(=O)c3cccc4cccnc34)cc2)cc1
14 | 5.13 | – | – | O=S(=O)(Nc1ccc(Nc2ccccc2)cc1)c1cccnc1 [T=H, X=H, A=SO2, Y=3-pyridyl]
15 | – | 71 | 5.43 | COc1ccc(N(N=O)c2ccc(NC(=O)c3cccc([N+](=O)[O-])c3)cc2)cc1 [Example 18]
16 | 5.27 | – | – | COc1ccc(Nc2ccc(NC(=O)c3cc(Cl)cnc3Cl)cc2)cc1
17 | 5.08 | – | – | CCn1nc(C)cc1C(=O)Nc1ccc(Nc2ccc(OC)cc2)cc1
18 | 5.19 | – | – | COc1ccc(Nc2ccc(NC(=O)c3cccc(C(F)(F)F)c3)cc2)cc1 [T=4-MeO—, X=H, A=CO, Y=3-CF3—C6H4—]
19 | 5.14 | – | – | COc1ccc(Nc2ccc(NC(=O)c3sc(S(C)(=O)=O)c4c3CCC=C4)cc2)cc1

Row | pIC50 [1] | Nitrates + nitrites [2] [µM] | pIC50 (Human LDLs) | SMILES
20 | 4.87 | – | – | CC(=O)Nc1ccc(S(=O)(=O)Nc2ccc(Nc3ccccc3)cc2)cc1Cl [T=H, X=H, A=SO2, Y=3-Cl,4-CH3CONH—C6H3—]
21 | 5.55 | – | – | COc1ccc(Nc2ccc(NC(=O)Cc3cc(C(C)(C)C)c(O)c(C(C)(C)C)c3)cc2)cc1
22 | – | 79 | 5.42 | COc1ccc(N(N=O)c2ccc(NS(=O)(=O)c3ccc(OC)cc3)cc2)cc1 [Example 86]
23 | 5.06 | – | – | COc1ccc(Nc2ccc(NC(=O)c3cc4cccc(OC)c4oc3=O)cc2)cc1
24 | – | 109 | 5.05 | O=NN(c1ccccc1)c1ccc(NC(=O)c2cccnc2)cc1 [Example 57]
25 | 5.30 | – | – | COc1ccc(Nc2ccc(NS(=O)(=O)c3ccc(OC)cc3)cc2)cc1 [T=4-MeO—, X=H, A=SO2, Y=4-MeO—C6H4—]
26 | 5.08 | – | – | COc1ccc(Nc2ccc(NC(=O)c3ccco3)cc2)cc1 [T=4-MeO—, X=H, A=CO, Y=2-furyl]
27 | 5.70 | – | – | COc1ccc(Nc2ccc(NC(=O)OCc3ccccc3)cc2)cc1 [253 (formula II), Benzyl 4-[(4-methoxyphenyl)amino]phenylcarbamate]
28 | 4.91 | – | – | CC(=O)Nc1ccc(S(=O)(=O)Nc2ccc(Nc3ccccc3)cc2)cc1 [T=H, X=H, A=SO2, Y=4-CH3CONH—C6H4—]
29 | – | 84 | 5.27 | COc1ccc(N(N=O)c2ccc(NC(=O)c3cncnc3)cc2)cc1 [Example 4]
30 | 5.59 | – | – | COc1ccc(Nc2ccc(NC(=O)c3cnc(Cl)nc3)cc2)cc1
31 | 4.88 | – | – | COc1ccc(Nc2ccc(NC(=O)/C=C/c3ccccc3[N+](=O)[O-])cc2)cc1
32 | 5.42 | – | – | COc1ccc(Nc2ccc(NC(=O)c3cccnc3)cc2)cc1 [T=4-MeO—, X=H, A=CO, Y=3-pyridyl]
33 | 5.37 | – | – | O=[N+]([O-])c1ccc(S(=O)(=O)Nc2ccc(Nc3ccccc3)cc2)cc1 [T=H, X=H, A=SO2, Y=4-NO2—C6H4]
34 | 5.32 | – | – | CC(C)(C)c1cc(CC(=O)Nc2ccc(Nc3ccccc3)cc2)ccc1O
35 | 5.06 | – | – | COc1ccc(Nc2ccc(NC(=O)c3cc([N+](=O)[O-])ccc3Oc3ccc(OC)cc3)cc2)cc1
36 | 5.10 | – | – | COc1ccc(Nc2ccc(NS(=O)(=O)c3cccnc3)cc2)cc1 [T=4-Me—O—, X=H, A=SO2, Y=3-pyridyl]
37 | – | 97 | 5.19 | COc1ccc(N(N=O)c2ccc(NC(=O)c3cccnc3)cc2)cc1 [Example 1, N-nitroso[4-methoxyphenyl][4-(3-pyridylcarbonylamino)phenyl]amine]
38 | – | – | 5.19 | CC(C)(Sc1cc(C(C)(C)C)c(O)c(C(C)(C)C)c1)Sc1cc(C(C)(C)C)c(O)c(C(C)(C)C)c1 [Probucol, reference compound]

Row | SMILES | pIC50 [1] | Nitrates + nitrites [2] [µM] | pIC50 (Human LDLs)
39 | O=NN(c1ccccc1)c1ccc(NS(=O)(=O)c2cccnc2)cc1 [Example 6] | – | 83 | 5.19
40 | O=S(=O)(/C=C/c1ccccc1)Nc1ccc(Nc2ccccc2)cc1 | 4.91 | – | –
41 | O=NN(c1ccccc1)c1ccc(NC(=O)Nc2ccccc2)cc1 [Example 8] | – | 44 | 5.27
42 | O=NN(c1ccccc1)c1ccc(NS(=O)(=O)c2ccccc2)cc1 [Example 45] | – | 62 | 5.49
43 | COc1ccc(N(N=O)c2ccc(NC(=O)OCc3ccccc3)cc2)cc1 [Example 253, Benzyl 4-[1-(4-methoxyphenyl)-2-oxohydrazino]phenylcarbamate] | – | 45 | 5.44
